In US20090054392A1, “NAPHTHYLPYRIMIDINE, NAPHTHYLPYRAZINE AND NAPHTHYLPYRIDAZINE ANALOGS AND THEIR USE AS AGONISTS OF THE WNT-BETA-CATENIN CELLULAR MESSAGING SYSTEM” (Wyeth, priority 2007, published 2009):

Tested on: Dkk1-LRP5-TCF-Luciferase
Test: Functional Dkk1-LRP5-TCF-Luciferase Assay in U2OS Cells
Details: for fold induction at 2 µM / fold induction at 20 µM / EC50: Homo sapiens, U2OS; for fold induction at 2 µM: read-out: B = TCF ACTIVITY/DMSO CONTROL Fold induction @ 2.0 uM, 2.0 uM compound; for fold induction at 20 µM: read-out: C = TCF ACTIVITY/DMSO CONTROL Fold induction @ 20.0 uM, 20.0 uM compound; for A = MAX FOLD Induction/DMSO CONTROL: maximum fold induction over DMSO control

Row | A = MAX FOLD Induction/DMSO CONTROL | EC50 | SMILES | fold induction at 2 µM | fold induction at 20 µM
1 | 1.650 fold |  | CC(=O)N1CCC(N(C)c2nccc(-c3ccc4ccccc4c3)n2)CC1 [N-(1-acetylpiperidin-4-yl)-N-methyl-4-(2-naphthyl)pyrimidin-2-amine] | 1.37 | 0.37
2 | 1.490 fold |  | O=C(c1ccccc1)N1CCC(Nc2nccc(-c3ccc4ccccc4c3)n2)CC1 [N-(1-benzoylpiperidin-4-yl)-4-(2-naphthyl)pyrimidin-2-amine] | 1.95 | 0.01
3 |  |  | CN(c1nccc(-c2ccc3ccccc3c2)n1)C1CCN(C(=O)c2ccccc2)CC1 [N-(1-benzoylpiperidin-4-yl)-N-methyl-4-(2-naphthyl)pyrimidin-2-amine] | 1.85 | 
4 |  |  | CN(c1nccc(-c2ccc3ccccc3c2)n1)C1CCN(Cc2ccccc2)CC1 [N-(1-benzylpiperidin-4-yl)-N-methyl-4-(2-naphthyl)pyrimidin-2-amine] | 1.55 | 1.24
5 | 1.853 fold | 5.7 µM | c1ccc2cc(-c3ccnc(NCCN4CCOCC4)n3)ccc2c1 [N-(2-morpholin-4-ylethyl)-4-(2-naphthyl)pyrimidin-2-amine] | 2.11 | 2.44
6 |  |  | O=C(NCCC1CCN(c2nccc(-c3ccc4ccccc4c3)n2)CC1)Nc1ccccc1 [N-(2-{1-[4-(2-naphthyl)pyrimidin-2-yl]piperidin-4-yl}ethyl)-N′-phenylurea] | 1 | 1.5
7 | 1.360 fold |  | CC(=O)NCCC1CCN(c2nccc(-c3ccc4ccccc4c3)n2)CC1 [N-(2-{1-[4-(2-naphthyl)pyrimidin-2-yl]piperidin-4-yl}ethyl)acetamide] | 2.27 | 1
8 |  |  | O=C(NCCC1CCN(c2nccc(-c3ccc4ccccc4c3)n2)CC1)c1ccccc1 [N-(2-{1-[4-(2-naphthyl)pyrimidin-2-yl]piperidin-4-yl}ethyl)benzamide] | 0.91 | 1.95
9 | 0.880 fold |  | CS(=O)(=O)NCCC1CCN(c2nccc(-c3ccc4ccccc4c3)n2)CC1 [N-(2-{1-[4-(2-naphthyl)pyrimidin-2-yl]piperidin-4-yl}ethyl)methanesulfonamide] |  | 
10 | 1.112 fold |  | NC(=O)NCCC1CCN(c2nccc(-c3ccc4ccccc4c3)n2)CC1 [N-(2-{1-[4-(2-naphthyl)pyrimidin-2-yl]piperidin-4-yl}ethyl)urea] |  | 
11 |  |  | N=C(N)OC(=N)NCCN1CCN(c2nccc(-c3ccc4ccccc4c3)n2)CC1 [N-(2-{4-[4-(2-naphthyl)pyrimidin-2-yl]piperazin-1-yl}ethyl)dicarbonimidic diamide] | 1.22 | 0.49
12 | 1.700 fold | 5.4 µM | CS(=O)(=O)NCCN1CCN(c2nccc(-c3ccc4ccccc4c3)n2)CC1 [N-(2-{4-[4-(2-naphthyl)pyrimidin-2-yl]piperazin-1-yl}ethyl)methanesulfonamide] | 1.31 | 1.93
13 | 2.120 fold | 23.8 µM | c1ccc2cc(-c3ccnc(NCCCN4CCOCC4)n3)ccc2c1 [N-(3-morpholin-4-ylpropyl)-4-(2-naphthyl)pyrimidin-2-amine] | 1.68 | 3.27
14 |  |  | COc1ccc(CNc2nccc(-c3ccc4ccccc4c3)n2)cc1 [N-(4-methoxybenzyl)-4-(2-naphthyl)pyrimidin-2-amine] |  | 1.12
15 | 3.140 fold |  | c1ccc2cc(-c3ccnc(NCC4CNC4)n3)ccc2c1 [N-(azetidin-3-ylmethyl)-4-(2-naphthyl)pyrimidin-2-amine] | 1.46 | 1.15
16 |  |  | CCC(C)Nc1nccc(-c2ccc3ccccc3c2)n1 (centres unmarked) [N-(sec-butyl)-4-(2-naphthyl)pyrimidin-2-amine] | 1.01 | 1.34
